Our source for the Ki and IC50 values is patent publication US20180265515A1 (Genentech, Inc., priority 2015, published 2018).

Test [1] has as its target T1, isolated recombinant JAK2 kinase domain (Homo sapiens, UniProt O60674).
T1 construct: The activity of the isolated recombinant JAK1 and JAK2 kinase domain was measured
Description: JAK2 enzyme assay (Caliper LabChip, Ki). The test is classed as biochemical. The following applies: 25 μM ATP. Put shortly: (§1)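 Caliper LabChip read-out: fraction of FAM-labeled JAK3-derived peptide converted to phosphopeptide by isolated JAK1/JAK2 kinase domain. Reaction 30 min, 22° C; stopped with EDTA, 50 mM final. Ki via Morrison tight-binding model, Ki=Ki,app/(1+[ATP]/Km,app).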

The target in test [2] is T2, isolated recombinant JAK1 kinase domain (Homo sapiens, UniProt P23458).
T2 construct: The activity of the isolated recombinant JAK1 and JAK2 kinase domain was measured
Briefly: JAK1 enzyme assay (Caliper LabChip, Ki). The following applies: recombinant JAK1 kinase domain, 25 μM ATP. The test is classed as biochemical. Put shortly: as §1

The subject of test [3] is JAK1-dependent STAT6 phosphorylation downstream of IL-13 stimulation in BEAS-2B human bronchial epithelial cells. Briefly: JAK1 pathway assay in BEAS-2B cells (IL-13 stimulated STAT6 phosphorylation, MSD). The test is classed as cell-based. Particulars: read-out: P-STAT6 BEAS2B + IL13 IC50. Put shortly:
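BEAS-2B human bronchial epithelial cells, plated the day before in complete growth medium, were preincubated with compound for 1 hr at 37° C (0.2% DMSO final), then stimulated with IL-13 at its EC90 for 15 min. STAT6 phosphorylation in lysates was read by MSD; EC50 was taken as 50% inhibition versus DMSO control.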

The structures appear in SMILES notation.

T2 sequence (P23458 875-1153 limits assumed): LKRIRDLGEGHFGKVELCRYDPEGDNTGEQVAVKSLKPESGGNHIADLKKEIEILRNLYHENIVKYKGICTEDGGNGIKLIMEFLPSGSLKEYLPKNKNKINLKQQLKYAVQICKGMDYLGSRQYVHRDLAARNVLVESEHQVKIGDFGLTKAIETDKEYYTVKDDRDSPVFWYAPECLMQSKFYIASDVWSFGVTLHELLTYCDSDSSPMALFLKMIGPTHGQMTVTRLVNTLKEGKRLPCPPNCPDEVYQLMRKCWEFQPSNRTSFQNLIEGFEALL
T1 sequence (O60674 849-1124 limits assumed): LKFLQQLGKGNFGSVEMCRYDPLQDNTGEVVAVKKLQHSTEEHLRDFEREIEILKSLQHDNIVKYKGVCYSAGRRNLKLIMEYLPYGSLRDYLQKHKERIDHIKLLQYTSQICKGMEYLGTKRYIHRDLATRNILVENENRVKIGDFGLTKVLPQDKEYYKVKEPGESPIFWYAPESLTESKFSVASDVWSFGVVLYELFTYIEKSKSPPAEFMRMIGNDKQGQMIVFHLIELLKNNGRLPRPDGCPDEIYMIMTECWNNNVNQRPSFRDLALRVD

With `CC(C)Sc1ccc(OC(F)F)c(-c2nn(CC(=O)N3CCN(CCN4CCOCC4)CC3)cc2NC(=O)c2cnn3cccnc23)c1` [Example 109, N-[3-[2-(difluoromethoxy)-5-isopropylsulfanyl-phenyl]-1-[2-[4-(2-morpholinoethyl)piperazin-1-yl]-2-oxo-ethyl]pyrazol-4-yl]pyrazolo[1,5-a]pyrimidine-3-carboxamide], the values for the inhibition constant Ki in test [1] and in test [2] were 0.78 nM and 0.41 nM, respectively. The IC50 in test [3] is 33 nM.

In the case of `CC(C)Sc1ccc(OC(F)F)c(-c2nn(CC(=O)N3CCC(N(C)C4COC4)CC3)cc2NC(=O)c2cnn3cccnc23)c1` [Example 110, N-[3-[2-(difluoromethoxy)-5-isopropylsulfanyl-phenyl]-1-[2-[4-[methyl(oxetan-3-yl)amino]-1-piperidyl]-2-oxo-ethyl]pyrazol-4-yl]pyrazolo[1,5-a]pyrimidine-3-carboxamide], the Ki in test [1] turned out to be 1 nM; in test [2], 0.41 nM. The half-maximal inhibitory concentration (IC50) in test [3] turned out to be 27 nM.

Regarding `CC(C)Sc1ccc(OC(F)F)c(-c2nn(CC(=O)N3CCC(N4CCSCC4)CC3)cc2NC(=O)c2cnn3cccnc23)c1` [Example 111, N-[3-[2-(difluoromethoxy)-5-isopropylsulfanyl-phenyl]-1-[2-oxo-2-(4-thiomorpholino-1-piperidyl)ethyl]pyrazol-4-yl]pyrazolo[1,5-a]pyrimidine-3-carboxamide], the Ki stood at 1 nM in test [1] and 0.38 nM in test [2]. The IC50 in test [3] came out at 19 nM.

For the molecule `CC(C)Sc1ccc(OC(F)F)c(-c2nn(CCN)cc2NC(=O)c2cnn3cccnc23)c1` [Example 112, N-[1-(2-aminoethyl)-3-[2-(difluoromethoxy)-5-isopropylsulfanyl-phenyl]pyrazol-4-yl]pyrazolo[1,5-a]pyrimidine-3-carboxamide], the Ki in test [1] and in test [2] was 0.39 nM in each case. Moreover, the half-maximal inhibitory concentration (IC50) in test [3] was found to be 18 nM.

Regarding `CC(C)Sc1ccc(OC(F)F)c(-c2nn(C[C@H]3CCCN3)cc2NC(=O)c2cnn3cccnc23)c1` [Example 113, N-[3-[2-(difluoromethoxy)-5-isoproplsulfanyl-phenyl]-1-[[(2R)-pyrrolidin-2-yl]methyl]pyrazol-4-yl]pyrazolo[1,5-a]pyrimidine-3-carboxamide], the inhibition constant (Ki) in test [1] worked out at 0.78 nM; in test [2], 0.64 nM. For the same molecule, the IC50 in test [3] turned out to be 20 nM.

For the molecule `CC(C)Sc1ccc(OC(F)F)c(-c2nn(CC(=O)N3CCC(CN4CCN(CC(=O)N(C)C)CC4)CC3)cc2NC(=O)c2cnn3cccnc23)c1` [Example 114, N-[3-[2-(difluoromethoxy)-5-isopropylsulfanyl-phenyl]-1-[2-[4-[[4-[2-(dimethylamino)-2-oxo-ethyl]piperazin-1-yl]methyl]-1-piperidyl]-2-oxo-ethyl]pyrazol-4-yl]pyrazolo[1,5-a]pyrimidine-3-carboxamide], the results for the Ki in test [1] and in test [2] were 3.9 nM and 1.6 nM, respectively. Moreover, in test [3], the half-maximal inhibitory concentration (IC50) worked out at 55 nM.

In the case of `CC(C)Sc1ccc(OC(F)F)c(-c2nn(CC(=O)N3CCC(NCC4(C#N)CC4)CC3)cc2NC(=O)c2cnn3cccnc23)c1` [Example 115, N-[1-[2-[4-[(1-cyanocyclopropyl)methylamino]-1-piperidyl]-2-oxo-ethyl]-3-[2-(difluoromethoxy)-5-isopropylsulfanyl-phenyl]pyrazol-4-yl]pyrazolo[1,5-a]pyrimidine-3-carboxamide], the Ki in test [1] came to 1.6 nM; in test [2], 0.65 nM. Also, the IC50 in test [3] came out at 34 nM.

Consider `COCCN1CCN(C(=O)Cn2cc(NC(=O)c3cnn4cccnc34)c(-c3cc(SC(C)C)ccc3OC(F)F)n2)CC1` [Example 116, N-[3-[2-(difluoromethoxy)-5-isopropylsulfanyl-phenyl]-1-[2-[4-(2-methoxyethyl)piperazin-1-yl]-2-oxo-ethyl]pyrazol-4-yl]pyrazolo[1,5-a]pyrimidine-3-carboxamide], for which the Ki in test [1] worked out at 1 nM; in test [2] it was 0.51 nM. In addition, the IC50 in test [3] was determined as 26 nM.

With `CC(C)Sc1ccc(OC(F)F)c(-c2nn(CC(=O)N3CCN(C)CC3)cc2NC(=O)c2cnn3cccnc23)c1` [Example 117, N-[3-[2-(difluoromethoxy)-5-isopropylsulfanyl-phenyl]-1-[2-(4-methylpiperazin-1-yl)-2-oxo-ethyl]pyrazol-4-yl]pyrazolo[1,5-a]pyrimidine-3-carboxamide], the values for the Ki in test [1] and in test [2] were 1.4 nM and 0.7 nM, respectively. The IC50 in test [3] was found to be 21 nM.

Turning to `CC(C)Sc1ccc(OC(F)F)c(-c2nn(CC(=O)N3CCC(N4CCN(C)CC4)CC3)cc2NC(=O)c2cnn3cccnc23)c1` [Example 118, N-[3-[2-(difluoromethoxy)-5-isopropylsulfanyl-phenyl]-1-[2-[4-(4-methylpiperazin-1-yl)-1-piperidyl]-2-oxo-ethyl]pyrazol-4-yl]pyrazolo[1,5-a]pyrimidine-3-carboxamide], the Ki amounted to 1.8 nM in test [1] and 0.6 nM in test [2]. The IC50 in test [3] stood at 40 nM.

Turning to `CC(C)Sc1ccc(OC(F)F)c(-c2nn(CC(=O)N3CCN(C4CCSCC4)CC3)cc2NC(=O)c2cnn3cccnc23)c1` [Example 119, N-[3-[2-(difluoromethoxy)-5-isopropylsulfanyl-phenyl]-1-[2-oxo-2-(4-tetrahydrothiopyran-4-ylpiperazin-1-yl)ethyl]pyrazol-4-yl]pyrazolo[1,5-a]pyrimidine-3-carboxamide], the Ki in test [1] stood at 0.96 nM; in test [2], 0.47 nM. Further, in test [3], the IC50 is 30 nM.

Turning to `CC(C)Sc1ccc(OC(F)F)c(-c2nn(CC(=O)N3CCC(NCC(C)(C)C#N)CC3)cc2NC(=O)c2cnn3cccnc23)c1` [Example 120, N-[1-[2-[4-[(2-cyano-2-methyl-propyl)amino]-1-piperidyl]-2-oxo-ethyl]-3-[2-(difluoromethoxy)-5-isopropylsulfanyl-phenyl]pyrazol-4-yl]pyrazolo[1,5-a]pyrimidine-3-carboxamide], the Ki in test [1] is 1.2 nM; in test [2], 0.4 nM. For the same molecule, the half-maximal inhibitory concentration (IC50) in test [3] amounted to 27 nM.

As to `CCN1CCN(C(=O)Cn2cc(NC(=O)c3cnn4cccnc34)c(-c3cc(SC(C)C)ccc3OC(F)F)n2)CC1` [Example 121, N-[3-[2-(difluoromethoxy)-5-isopropylsulfanyl-phenyl]-1-[2-(4-ethylpiperazin-1-yl)-2-oxo-ethyl]pyrazol-4-yl]pyrazolo[1,5-a]pyrimidine-3-carboxamide], the inhibition constant Ki in test [1] worked out at 1.3 nM; in test [2], 0.7 nM. The half-inhibitory concentration (IC50) in test [3] came out at 31 nM.

With `CC(C)Sc1ccc(OC(F)F)c(-c2nn(CC(=O)N3CCN(CCOCCO)CC3)cc2NC(=O)c2cnn3cccnc23)c1` [Example 122, N-[3-[2-(difluoromethoxy)-5-isopropylsulfanyl-phenyl]-1-[2-[4-[2-(2-hydroxyethoxy)ethyl]piperazin-1-yl]-2-oxo-ethyl]pyrazol-4-yl]pyrazolo[1,5-a]pyrimidine-3-carboxamide], the Ki in test [1] turned out to be 0.85 nM; in test [2], 0.41 nM. Also, the IC50 in test [3] amounted to 42 nM.

Take `CC(C)Sc1ccc(OC(F)F)c(-c2nn(CC(=O)N3CCC(N(C)CC4OCCO4)CC3)cc2NC(=O)c2cnn3cccnc23)c1` [Example 123, N-[3-[2-(difluoromethoxy)-5-isopropylsulfanyl-phenyl]-1-[2-[4-[1,3-dioxolan-2-ylmethyl(methyl)amino]-1-piperidyl]-2-oxo-ethyl]pyrazol-4-yl]pyrazolo[1,5-a]pyrimidine-3-carboxamide]: the Ki in test [1] amounted to 2 nM; in test [2], 0.79 nM. In test [3], the IC50 is 38 nM.
